{
  "source": "patent US9751081B2",
  "about": "“Self-regenerating antioxidant catalysts and methods of using the same” (Clemson University, priority 2014, dated 2017)",
  "key": {"[1]": {"assay": "In situ oxidation of ABTS^2− to ABTS^•− via HRP and H2O2 in the presence of antioxidant", "type": "biochemical"}, "[2]": {"assay": "Reduction of ABTS radical monoanion in EtOH (absorbance at 750 nm)", "type": "biochemical", "protocol": "To probe the potential antioxidant activity of Ru1, 2,2′-azino-bis(3-ethylbenzothiazoline-6-sulfonate) radical monoanion (ABTS^•−), which is stable in aerobic, protic media and undergoes reversible one-electron reduction to ABTS^2−, was selected as the substrate for studies of catalytic radical reduction (Scheme 7).\nAccompanying this degradation of 50 μM ABTS^•− was an increase in absorbance at 340 nm corresponding to the formation of 50 μM ABTS^2−, indicating 1:1 conversion of ABTS^•− to ABTS^2− by Ru1.\nTo assess its catalytic potential and corresponding regeneration, the reactivity of Ru1 with multiple sequential aliquots of excess ABTS^•− was examined. After the reduction of 50 μM ABTS^•− by 5 μM Ru1 (DMSO stock) was complete (FIG. 12B, black line), 5 additional 50 μM aliquots of ABTS^•− were introduced, whereupon complete ABTS^•− reduction occurred each time (FIG. 12B, grey line, 60 turnovers). Although the time required for complete degradation increased with each successive ABTS^•− aliquot, 5 μM Ru1 nonetheless remained catalytically competent for the complete reduction of […] ABTS^•−."}, "[3]": {"assay": "Stability (air, moisture, solution)", "type": "physicochemical", "details": "isolated powder"}, "[4]": {"details": "published values; cited from earlier work"}},
  "data": [
    {"smiles": "Cc1c(C)c2c(c(C)c1O)CCC(C)(C(=O)O)O2", "note": "(stereo not drawn) [Trolox]", "values": [
      {"measurement": "net oxidation of ABTS^2−", "setting": "[1]; 5 μM Trolox, 10 μM H2O2", "value": 75, "unit": "%"},
      {"measurement": "time with no change in absorbance at 734 nm (ABTS^•− formation halted)", "setting": "[1]; 5 μM Trolox, 10 μM H2O2", "value": "4.2 ± 0.4", "unit": "min"},
      {"measurement": "initial rate of ABTS^•− formation (v0)", "setting": "[1]; 5 μM antioxidant (DMSO stock), 10 nM HRP, 50 μM ABTS^2−, first 10 μM H2O2, PBS", "value": "3.44±0.11×10^−8 M s^−1"},
      {"measurement": "maximum ABTS^•− concentration", "setting": "[1]; first 10 μM H2O2", "value": "15.06 ± 0.04", "unit": "µM"},
      {"measurement": "time to maximum ABTS^•− concentration", "setting": "[1]; first 10 μM H2O2", "value": "22.0 ± 0.5", "unit": "min"},
      {"measurement": "ABTS^•− reduced", "setting": "[2]; 5 μM antioxidant, 50 μM ABTS^•− in EtOH", "value": 10, "unit": "µM"},
      {"measurement": "decay in radical absorbance at 750 nm", "setting": "[2]; 5 μM antioxidant, 50 μM ABTS^•− in EtOH, 25° C.", "value": 20, "unit": "%"},
      {"measurement": "equiv. of ABTS^•− reduced vs antioxidant", "setting": "[2]; EtOH, non-catalytic capacity", "value": 2, "unit": "equiv."}
    ]},
    {"smiles": "Br.Cc1cc(C)cc(-n2c[n+](CC(=O)[O-])c3ccccc32)c1", "note": "[[1H2][Br], 2-(3-{3,5-dimethylphenyl}-benzimidazol-1-ium-1-yl)acetate hydrobromide]", "values": [
      {"measurement": "stability to air and moisture", "setting": "[3]", "value": "air- and moisture-stable"}
    ]},
    {"smiles": "CC(C)O", "note": "[i-PrOH, isopropanol]", "values": [
      {"measurement": "pKa", "setting": "[4]", "value": 16.5}
    ]},
    {"smiles": "CO", "note": "[MeOH, methanol]", "values": [
      {"measurement": "pKa", "setting": "[4]", "value": 15.5}
    ]},
    {"smiles": "OCCO", "note": "[EG, Ethylene glycol]", "values": [
      {"measurement": "pKa", "setting": "[4]", "value": 14.22}
    ]}
  ]
}
